Reference: patent US20230089867A1, “CYCLIC PENTAMER COMPOUNDS AS PROPROTEIN CONVERTASE SUBTILISIN/KEXIN TYPE 9 (PCSK9) INHIBITORS FOR THE TREATMENT OF METABOLIC DISORDER” (Novartis AG, priority 2018, published 2023)

Target: human PCSK9 (Homo sapiens, UniProt Q8NBP7)
Assay: PCSK9 ligand binding TR-FRET assay (interference with binding of human PCSK9 to human LDLR)
Conditions: for Max % inhibition: PCSK9 FRET assay, efficacy (Amax), 100% = 1 uM unlabeled human PCSK9, 0% = DMSO; for IC50: TR-FRET, human PCSK9 Alexa Fluor 647 / human LDLR extracellular domain-Europium Kryptate, read-out: PCSK9 FRET Assay IC50
In short: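 Threefold compound dilutions were pre-incubated 30 min with PCSK9, after which 4 nM Europium Kryptate-tagged human LDLR ectodomain was added for a further 2 h.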

Chain of human PCSK9 (Q8NBP7 153-692): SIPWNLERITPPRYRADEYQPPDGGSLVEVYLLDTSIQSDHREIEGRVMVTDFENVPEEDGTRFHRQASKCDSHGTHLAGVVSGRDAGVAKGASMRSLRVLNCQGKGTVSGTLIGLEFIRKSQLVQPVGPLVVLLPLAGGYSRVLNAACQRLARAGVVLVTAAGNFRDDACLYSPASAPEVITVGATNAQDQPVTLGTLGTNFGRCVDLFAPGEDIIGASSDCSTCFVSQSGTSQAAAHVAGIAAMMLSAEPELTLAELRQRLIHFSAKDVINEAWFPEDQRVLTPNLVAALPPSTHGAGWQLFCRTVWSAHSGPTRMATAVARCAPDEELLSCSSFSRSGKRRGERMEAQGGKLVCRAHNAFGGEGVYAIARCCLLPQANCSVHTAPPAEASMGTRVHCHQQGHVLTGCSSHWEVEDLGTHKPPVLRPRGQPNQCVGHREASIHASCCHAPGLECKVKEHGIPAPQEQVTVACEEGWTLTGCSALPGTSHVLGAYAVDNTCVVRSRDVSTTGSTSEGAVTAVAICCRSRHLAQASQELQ
Chain of human PCSK9 (Q8NBP7 31-152 partner limits assumed): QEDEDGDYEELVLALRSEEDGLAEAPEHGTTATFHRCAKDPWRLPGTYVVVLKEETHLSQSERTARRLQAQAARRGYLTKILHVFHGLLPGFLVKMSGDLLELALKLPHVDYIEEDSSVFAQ

Row | Max % inhibition [%] | IC50 [nM] | SMILES
1 | 99.73 | 0.7 | COC[C@@H]1NC(=O)[C@H](C)N(Cc2ccc(Cl)cc2Oc2ccc(-c3cnc(CN4CCCC4)n3C)cc2)C(=O)C[C@@H](Cc2ccc(F)cc2)C(=O)N(C)[C@@H](C)CNC(=O)C[C@H](Cc2ccc(Cl)cc2)N(C)C1=O [Compound 108, (2S,5S,8S,13S,16R)-1-(4-chloro-2-(4-(1-methyl-2-(pyrrolidin-1-ylmethyl)-1H-imidazol-5-yl)phenoxy)benzyl)-8-(4-chlorobenzyl)-16-(4-fluorobenzyl)-5-(methoxymethyl)-2,7,13,14-tetramethyl-1,4,7,11,14-pentaazacyclooctadecane-3,6,10,15,18-pentaone]
2 | 103.39 | 0.6 | COC[C@@H]1NC(=O)[C@H](C)N(Cc2ccc(Cl)cc2Oc2ccc(-c3cnc(CN(C)C)n3C)cc2)C(=O)C[C@@H](Cc2ccccc2)C(=O)N(C)[C@@H](C)[C@H](C)NC(=O)C[C@H](Cc2ccc(Cl)cc2)N(C)C1=O [Compound 186, (2S,5S,8S,12S,13S,16R)-16-benzyl-1-(4-chloro-2-(4-(2-((dimethylamino)methyl)-1-methyl-1H-imidazol-5-yl)phenoxy)benzyl)-8-(4-chlorobenzyl)-5-(methoxymethyl)-2,7,12,13,14-pentamethyl-1,4,7,11,14-pentaazacyclooctadecane-3,6,10,15,18-pentaone]
3 | 104.70 | 8.8 | COC[C@@H]1NC(=O)[C@H](C)N(Cc2ccc(Cl)cc2Oc2ccc(-c3cnc(CN(C)C)n3C)cc2)C(=O)CN2C[C@H](CNC(=O)C[C@H](Cc3ccc(Cl)cc3)N(C)C1=O)N(C)C2=O [Compound 227, (5S,8S,11S,16S)-4-(4-chloro-2-(4-(2-((dimethylamino)methyl)-1-methyl-1H-imidazol-5-yl)phenoxy)benzyl)-11-(4-chlorobenzyl)-8-(methoxymethyl)-5,10,17-trimethyl-1,4,7,10,14,17-hexaazabicyclo[14.2.1]nonadecane-3,6,9,13,18-pentaone]
4 | 103.93 | 87.3 | COC[C@@H]1NC(=O)[C@H](C)N(Cc2ccc(Cl)cc2Oc2ccc(-c3cnc(CN4CCCC4)n3C)cc2)C(=O)C[C@@H](Cc2ccn(C(F)F)n2)C(=O)N(C)[C@@H](C)CNC(=O)C[C@H](Cc2ccc(Cl)cc2)N(C)C1=O [Compound 63, (2S,5S,8S,13S)-1-(4-chloro-2-(4-(1-methyl-2-(pyrrolidin-1-ylmethyl)-1H-imidazol-5-yl)phenoxy)benzyl)-8-(4-chlorobenzyl)-16-((1-(difluoromethyl)-1H-pyrazol-3-yl)methyl)-5-(methoxymethyl)-2,7,13,14-tetramethyl-1,4,7,11,14-pentaazacyclooctadecane-3,6,10,15,18-pentaone]
5 | 87.82 | 4.8 | COC[C@@H]1NC(=O)[C@H](C)N(Cc2ccc(F)cc2Oc2ccc(-c3cnc(CN(C)C)n3C)cc2)C(=O)C[C@@H](Cc2ccccc2)C(=O)N(C)[C@H]2CCCC[C@@H]2NC(=O)C[C@H](Cc2ccc(Cl)cc2)N(C)C1=O [Compound 48, (4S,7S,10S,14R,16aS,20aS)-14-benzyl-4-(4-chlorobenzyl)-11-(2-(4-(2-((dimethylamino)methyl)-1-methyl-1H-imidazol-5-yl)phenoxy)-4-fluorobenzyl)-7-(methoxymethyl)-5,10,16-trimethylhexadecahydrobenzo[l][1,4,7,11,14]pentaazacyclooctadecine-2,6,9,12,15(3H)-pentaone]
6 | 95.15 | 650 | COC[C@@H]1NC(=O)[C@H](C)N(Cc2ccc(Cl)cc2Oc2ccc(-c3cnc(CN(C)C)n3C)cc2)C(=O)C[C@@H](Cc2ccccc2)C(=O)N(C)[C@@H]2CCOC[C@H]2NC(=O)C[C@H](Cc2ccc(Cl)cc2)N(C)C1=O [Compound 224, (4S,7S,10S,14R,16aR,20aS)-14-benzyl-11-(4-chloro-2-(4-(2-((dimethylamino)methyl)-1-methyl-1H-imidazol-5-yl)phenoxy)benzyl)-4-(4-chlorobenzyl)-7-(methoxymethyl)-5,10,16-trimethyltetradecahydro-1H-pyrano[3,4-l][1,4,7,11,14]pentaazacyclooctadecine-2,6,9,12,15(3H)-pentaone]
7 | 80.18 | 3.6 | C[C@@H]1CC(=O)N(Cc2ccc(Cl)cc2Oc2ccc(-c3cnc(CN(C)C)n3C)cc2)[C@@H](C)C(=O)N[C@@H](CO)C(=O)N(C)[C@@H](Cc2ccc(Cl)cc2)CC(=O)N[C@H]2CCCC[C@@H]2N(C)C1=O [Compound 164, (4S,7S,10S,14R,16aS,20aS)-11-(4-chloro-2-(4-(2-((dimethylamino)methyl)-1-methyl-1H-imidazol-5-yl)phenoxy)benzyl)-4-(4-chlorobenzyl)-7-(hydroxymethyl)-5,10,14,16-tetramethylhexadecahydrobenzo[l][1,4,7,11,14]pentaazacyclooctadecine-2,6,9,12,15(3H)-pentaone]
8 | 86.12 | 1.1 | COC[C@@H]1NC(=O)[C@H](C)N(Cc2ccc(Cl)cc2Oc2ccc(-c3cnc(CN(C)C)n3C)cc2)C(=O)C[C@@H](Cc2ccon2)C(=O)N(C)[C@H]2CCCC[C@@H]2NC(=O)C[C@H](Cc2ccc(Cl)cc2)N(C)C1=O [Compound 18, (4S,7S,10S,14R,16aS,20aS)-11-(4-chloro-2-(4-(2-((dimethylamino)methyl)-1-methyl-1H-imidazol-5-yl)phenoxy)benzyl)-4-(4-chlorobenzyl)-14-(isoxazol-3-ylmethyl)-7-(methoxymethyl)-5,10,16-trimethylhexadecahydrobenzo[l][1,4,7,11,14]pentaazacyclooctadecine-2,6,9,12,15(3H)-pentaone]
9 | 51.67 | 3.1 | Cc1c(CN2CCCC2)cncc1-c1ccc(Oc2cc(Cl)ccc2CN2C(=O)C[C@@H](Cc3ccccc3)C(=O)N(C)[C@@H](C)CNC(=O)C[C@H](Cc3ccc(Cl)cc3)N(C)C(=O)[C@H](CO)NC(=O)[C@@H]2C)cc1 [Compound 146, (2S,5S,8S,13S,16R)-16-benzyl-1-(4-chloro-2-(4-(4-methyl-5-(pyrrolidin-1-ylmethyl)pyridin-3-yl)phenoxy)benzyl)-8-(4-chlorobenzyl)-5-(hydroxymethyl)-2,7,13,14-tetramethyl-1,4,7,11,14-pentaazacyclooctadecane-3,6,10,15,18-pentaone]
10 | 103.76 | 0.6 | COC[C@@H]1NC(=O)[C@H](C)N(Cc2ccc(OC(F)F)cc2Oc2ccc(-c3cnc(CN(C)C)n3C)cc2)C(=O)C[C@@H](Cc2ccccc2)C(=O)N(C)[C@@H](C)CNC(=O)C[C@H](Cc2ccc(Cl)cc2)N(C)C1=O [Compound 179, (2S,5S,8S,13S,16R)-16-benzyl-8-(4-chlorobenzyl)-1-(4-(difluoromethoxy)-2-(4-(2-((dimethylamino)methyl)-1-methyl-1H-imidazol-5-yl)phenoxy)benzyl)-5-(methoxymethyl)-2,7,13,14-tetramethyl-1,4,7,11,14-pentaazacyclooctadecane-3,6,10,15,18-pentaone]
11 | 102.86 | 1.6 | COC[C@@H]1NC(=O)[C@H](CCCN(C)C)N(Cc2ccc(Cl)cc2Oc2ccc(-c3cnc(CN(C)C)n3C)cc2)C(=O)C[C@@H](Cc2ccccc2)C(=O)N(C)[C@H]2CCCC[C@@H]2NC(=O)C[C@H](Cc2ccc(Cl)cc2)N(C)C1=O [Compound 291, (4S,7S,10S,14R,16aS,20aS)-14-benzyl-11-(4-chloro-2-(4-(2-((dimethylamino)methyl)-1-methyl-1H-imidazol-5-yl)phenoxy)benzyl)-4-(4-chlorobenzyl)-10-(3-(dimethylamino)propyl)-7-(methoxymethyl)-5,16-dimethylhexadecahydrobenzo[l][1,4,7,11,14]pentaazacyclooctadecine-2,6,9,12,15(3H)-pentaone]
12 | 42.24 | 249 | C[C@H]1C(=O)N[C@@H](COC(=O)C(C)(C)C)C(=O)N(C)[C@@H](Cc2ccc(Cl)cc2)CC(=O)N[C@H]2CCCC[C@@H]2N(C)C(=O)[C@H](Cc2ccccc2)CC(=O)N1Cc1ccc(Cl)cc1Oc1ccc(-c2cnc(CN(C)C)n2C)cc1 [Compound 226, ((4S,7S,10S,14R,16aS,20aS)-14-benzyl-11-(4-chloro-2-(4-(2-((dimethylamino)methyl)-1-methyl-1H-imidazol-5-yl)phenoxy)benzyl)-4-(4-chlorobenzyl)-5,10,16-trimethyl-2,6,9,12,15-pentaoxodocosahydrobenzo[l][1,4,7,11,14]pentaazacyclooctadecin-7-yl)methyl pivalate]
13 | 91.88 | 77.2 | C[C@H]1CNC(=O)C[C@H](Cc2ccc(Cl)cc2)N(C)C(=O)[C@H](CO)NC(=O)[C@H](C)N(Cc2ccccc2Oc2ccc(-c3cnc(CN(C)C)n3C)cc2)C(=O)CCC(=O)N1C [Compound 66, (2S,5S,8S,13S)-8-(4-chlorobenzyl)-1-(2-(4-(2-((dimethylamino)methyl)-1-methyl-1H-imidazol-5-yl)phenoxy)benzyl)-5-(hydroxymethyl)-2,7,13,14-tetramethyl-1,4,7,11,14-pentaazacyclooctadecane-3,6,10,15,18-pentaone]
14 | 98.16 | 1.9 | COC[C@@H]1NC(=O)[C@H](C)N(Cc2ccc(Cl)cc2Oc2ccc(-c3cnc(CN(C)C)n3C)cc2)C(=O)C[C@@H](Cc2cc(F)cc(F)c2F)C(=O)N(C)[C@@H](C)CNC(=O)C[C@H](Cc2ccc(Cl)cc2)N(C)C1=O [Compound 98, (2S,5S,8S,13S,16R)-1-(4-chloro-2-(4-(2-((dimethylamino)methyl)-1-methyl-1H-imidazol-5-yl)phenoxy)benzyl)-8-(4-chlorobenzyl)-5-(methoxymethyl)-2,7,13,14-tetramethyl-16-(2,3,5-trifluorobenzyl)-1,4,7,11,14-pentaazacyclooctadecane-3,6,10,15,18-pentaone]
